Source: ChEMBL document CHEMBL1201862, “PubChem BioAssay data set” (2004)
Blank lines part the entries; values can stand above or below the compound they belong to. Calls of active or inactive are those of the source.

Assays:
Assay type in all cases: functional
[1] = target: T1, Calpain-2 catalytic subunit (Sus scrofa, UniProt P43367); test: m-calpain protease blockers, concentration series – biochemical, fluorogenic peptide substrate, dose response (AID 1420)
T1 sequence (P43367 whole entry): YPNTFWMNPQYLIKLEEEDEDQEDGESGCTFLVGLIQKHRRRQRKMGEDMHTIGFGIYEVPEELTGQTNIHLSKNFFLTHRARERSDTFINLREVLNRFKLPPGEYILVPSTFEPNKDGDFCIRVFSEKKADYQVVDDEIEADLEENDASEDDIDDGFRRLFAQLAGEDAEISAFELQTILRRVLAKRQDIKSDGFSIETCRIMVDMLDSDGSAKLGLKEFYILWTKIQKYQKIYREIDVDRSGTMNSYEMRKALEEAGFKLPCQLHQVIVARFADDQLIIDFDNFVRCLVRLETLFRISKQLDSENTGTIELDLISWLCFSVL

[2] = target: T2, Heat shock factor protein 1 (Mus musculus, UniProt P38532); test: decrease of HSF1-responsive luciferase luminescence – cell-based, NIH3T3, dose retest, confirmation (AID 2382);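 also: NIH3T3 fibroblasts with HSF1-driven luciferase reporter stressed by proteasome inhibitor MG132; luminescence from HSF1-driven luciferase expression after 8 hours of MG132 stress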
T2 sequence (P38532 whole entry): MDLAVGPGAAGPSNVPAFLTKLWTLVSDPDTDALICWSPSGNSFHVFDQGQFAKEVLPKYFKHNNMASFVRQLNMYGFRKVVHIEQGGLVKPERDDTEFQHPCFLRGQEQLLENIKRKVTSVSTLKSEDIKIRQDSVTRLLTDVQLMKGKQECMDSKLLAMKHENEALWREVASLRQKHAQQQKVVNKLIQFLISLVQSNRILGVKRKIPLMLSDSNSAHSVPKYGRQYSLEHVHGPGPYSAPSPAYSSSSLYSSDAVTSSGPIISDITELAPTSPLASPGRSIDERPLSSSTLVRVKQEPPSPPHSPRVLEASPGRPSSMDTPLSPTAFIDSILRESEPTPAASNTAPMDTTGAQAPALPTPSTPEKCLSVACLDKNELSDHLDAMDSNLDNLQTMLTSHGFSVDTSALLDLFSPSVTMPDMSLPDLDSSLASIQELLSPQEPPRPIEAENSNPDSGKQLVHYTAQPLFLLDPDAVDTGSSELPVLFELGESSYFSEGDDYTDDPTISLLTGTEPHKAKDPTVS

[3] = target: T3, Corticotropin-releasing factor receptor 2/Corticotropin-releasing factor-binding protein (Homo sapiens, UniProt P24387+Q13324); test: Dose Response confirmation of uHTS hits for small molecule antagonists of the CRF-binding protein and CRF-R2 receptor complex.; settings: read-out: IC50_Mean
T3 sequence (Q13324 whole entry): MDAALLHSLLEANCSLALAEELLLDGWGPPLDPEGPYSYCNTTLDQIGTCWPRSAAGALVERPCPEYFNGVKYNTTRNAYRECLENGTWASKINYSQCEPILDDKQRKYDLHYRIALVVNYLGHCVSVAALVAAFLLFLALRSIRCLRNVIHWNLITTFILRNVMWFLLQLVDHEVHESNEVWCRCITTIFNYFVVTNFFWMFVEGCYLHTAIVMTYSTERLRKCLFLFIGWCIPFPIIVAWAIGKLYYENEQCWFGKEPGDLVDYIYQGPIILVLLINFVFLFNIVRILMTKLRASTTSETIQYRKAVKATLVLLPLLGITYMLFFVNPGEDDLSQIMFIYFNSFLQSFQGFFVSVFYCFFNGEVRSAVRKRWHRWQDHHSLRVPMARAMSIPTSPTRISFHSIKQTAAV
T3 sequence (P24387 whole entry): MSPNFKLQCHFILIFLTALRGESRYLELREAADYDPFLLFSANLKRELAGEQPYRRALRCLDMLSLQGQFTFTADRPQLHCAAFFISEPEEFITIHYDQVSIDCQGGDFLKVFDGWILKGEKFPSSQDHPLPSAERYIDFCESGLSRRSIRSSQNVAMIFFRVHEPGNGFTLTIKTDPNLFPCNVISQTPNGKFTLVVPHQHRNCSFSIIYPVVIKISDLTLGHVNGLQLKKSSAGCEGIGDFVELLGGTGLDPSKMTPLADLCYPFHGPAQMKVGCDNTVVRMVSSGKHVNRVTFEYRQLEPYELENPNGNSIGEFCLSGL

[4] = target: T3, Corticotropin-releasing factor receptor 2/Corticotropin-releasing factor-binding protein; test: activators of CRF receptor 2 with binding protein – uHTS hits, confirmation (AID 602473); settings: read-out: EC50_Mean
[5] = non-specific 3'UTR reporter inhibition in Clone20-Shn3RL – cell-based, Renilla luciferase, cherry-picked, counter-screen for Shn3 inhibitor project, dose response (AID 624133)
[6] = reduction of Shn3 3'UTR-driven luciferase in osteoblasts – cell-based, Clone20 osteoblasts, firefly luciferase, cherry-picked, dose response (AID 624132);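 also: firefly luciferase luminescence from reporter carrying the Shn3 3'UTR in osteoblasts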
[7] = loss of viability in HepG2 cells – cell-based, CellTiter-Glo, cherry-picked, cytotoxicity control for Shn3 inhibitor project, dose response (AID 624134)
INS1 = test: INS-1E survival protection against cytokine death – cell-based, luminescence, retest, dose response (AID 449756); settings: Rattus norvegicus;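 also: cell death triggered by IL-1 beta plus TNF-alpha plus IFN-gamma mixture; protective hits raise ATP signal compared with cytokine alone wells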

SMILES: CCCN(CCC)C(=O)CC(c1ccccc1)c1cc(Br)ccc1O (stereo not given)
IC50 [1]: 16 µM (not active)

SMILES: CC(C)Nc1nnc(Sc2ccc(Cl)cc2[N+](=O)[O-])s1
EC50 [2]: > 195 µM (not active)
IC50 [1]: 4.91 µM (not active)

SMILES: CC(=O)N1CCN(C(=O)CCc2cc(C(C)(C)C)c(O)c(C(C)(C)C)c2)CC1
AC50 [5]: 14.5 µM (active)
AC50 [6]: 4.46 µM (active)

SMILES: CC(C)(C)N(Cc1ccccc1)C(=O)CCc1ccccc1
IC50 [1]: 32.5 µM (not active)

SMILES: C[C@H](NC(=O)c1ncn2c1c(O)nc1ccc(Br)cc12)c1ccccc1
AC50 [7]: 9.3 µM (active)
AC50 [5]: 16.2 µM (active)
AC50 [6]: 8.76 µM (active)

SMILES: Nn1c(SCC(=O)NC(=O)Nc2ccc3c(c2)OCCO3)nnc1C1CC1
IC50 [1]: 9.49 µM (not active)

SMILES: O=C(NNC(=O)c1cccc(S(=O)(=O)N2CCc3ccccc32)c1)c1ccccc1
AC50 [7]: 46.2 µM (active)
AC50 [5]: 3.89 µM (active)
AC50 [6]: 1.52 µM (active)

SMILES: Cc1ccc(C)c(-c2csc(NC(=O)C3=COCCO3)n2)c1
AC50 (INS1): 7.19 µM (active)

Further lines, results first:

IC50 [3]: > 47.1 µM (inactive)
EC50 [4]: > 53 µM (inactive)
SMILES: O=C1CC(c2ccccc2)CN1S(=O)(=O)c1ccccc1 (stereo not given)

IC50 [1]: 11.4 µM (not active)
SMILES: Cc1cc(C)c(S(=O)(=O)Nc2ccc3c(c2)CCC3)c(C)c1

IC50 [3]: > 47.1 µM (inactive)
EC50 [4]: > 53 µM (inactive)
SMILES: N#CCc1ccc(NS(=O)(=O)c2cccs2)cc1

IC50 [1]: 8.08 µM (not active)
SMILES: CC(C)(C)c1ccc(OCCNC(=S)Nc2ccccc2)cc1
